# Results reported in patent US7112574B2, “C2,8-disubstituted adenosine derivatives and their different uses” (priority 2001, dated 2006).
# Read-outs that look alike come from different tables or passages of the source.
# Key:
# adenosine A1 receptor = molecular target: T1, adenosine A1 receptor (Rattus norvegicus, UniProt P25099); assay: biochemical; conditions: for inhibition at 10 µM: read-out: % displacement at 10^-5 M, A1
# T1 sequence (P25099 1-326): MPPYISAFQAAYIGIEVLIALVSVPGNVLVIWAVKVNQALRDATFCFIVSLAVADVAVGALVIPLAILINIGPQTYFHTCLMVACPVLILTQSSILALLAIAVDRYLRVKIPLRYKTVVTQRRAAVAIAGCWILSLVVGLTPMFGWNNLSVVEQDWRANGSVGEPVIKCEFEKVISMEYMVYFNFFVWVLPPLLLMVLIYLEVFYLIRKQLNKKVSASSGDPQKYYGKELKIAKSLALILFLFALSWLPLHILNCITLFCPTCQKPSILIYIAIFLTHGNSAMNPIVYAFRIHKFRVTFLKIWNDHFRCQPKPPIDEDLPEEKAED
# Experimental: (§1) Incubations were carried out for 1 hr at 37° C. and were terminated by rapid filtration over Whatman GF/B filters, using a Brandell cell harvester (Brandell, Gaithersburg, Md.). Tubes were washed three times with 3 ml of buffer. Radioactivity was determined in a Beckman 5500B γ-counter. Nonspecific binding was determined in the presence of 10^−5 M R-PIA.
# (§2) All compounds prepared were tested in radioligand binding assays to determine their affinities for the adenosine A1 receptor in rat brain cortex, the A2A receptor in rat striatum and the human A3 receptor as expressed in HEK 293 cells (Table 2, hereinafter). The Ki values were computed from the displacement curves obtained by nonlinear regression of the competition curves with the software package Prism (Graph Pad, San Diego, Calif.)
# (§3) For the adenosine A1 receptor, the tritiated antagonist, [^3H]-1,3-dipropyl-8-cyclopentylxanthine ([^3H]DPCPX), and for the adenosine A2A receptor, the tritiated antagonist [^3H]ZM 241385 were used. Since radiolabeled antagonists are not commercially available for the adenosine A3 receptor, [125I]AB-MECA, an A3 receptor agonist, was used. Displacement experiments were performed in the absence of GTP.
# [1] = molecular target: human adenosine A2A receptors (Homo sapiens, UniProt P29274); conditions: for agonist behaviour (intrinsic activity) at the adenosine A2A receptor: cAMP production compared to reference agonist CGS 21680, words
# Experimental: CHO cells expressing the human adenosine A2A receptors were grown overnight as a monolayer in 24 wells tissue culture plates (400 μl/well; 2×10^5 cells/well). cAMP generation was performed in Dulbecco's Modified Eagles Medium (DMEM)/N-2-hydroxyethylpiperazin-N′-2-ethansulfonic acid HEPES) buffer (0.60 g HEPES/50 ml DMEM pH 7.4). To each well, washed three times with DMEM/HEPES buffer (250 μl), 100 μl DMEM/HEPES buffer, 100 μl adenosine deaminase (final concentration 5 IU/ml) and 100 μl of a mixture of rolipram and cilostamide (final concentration 50 μM each) were added. After incubation for 40 minutes at 37° C., 100 μL agonist was added. After 15 minutes at 37° C., the reaction was terminated by removing the medium and adding 200 μl 0.1 M HCl. Wells were stored at −20° C. until assay.
# The amounts of cAMP were determined after a protocol with cAMP binding protein^12 with the following minor modifications. As a buffer was used 150 mM K2HPO4/10 mM EDTA/0.2% Bovine Serum Albumine (BSA) at pH 7.5. Samples (20 μl+30 μl 0.1 M HCl) were incubated for at least 2.5 hours at 0° C. before filtration over Whatman GF/B filters. […] Filters were counted in Packard Emulsifier Safe scintillation fluid (3.5 ml) after 24 hours of extraction.
# All compounds prepared were also tested in a functional assay.
# human A3 receptor = molecular target: T2, human A3 receptor (Homo sapiens, UniProt P0DMS8); assay: Radioligand binding, displacement of [125I]AB-MECA from human A3 receptor expressed in HEK 293 cells; conditions: for % displacement at 10^-5 M, A3: 10 μM, n=2, mean value
# T2 construct: expressed in transfected cells; host or cells: HEK 293
# T2 sequence (P0DMS8 1-318): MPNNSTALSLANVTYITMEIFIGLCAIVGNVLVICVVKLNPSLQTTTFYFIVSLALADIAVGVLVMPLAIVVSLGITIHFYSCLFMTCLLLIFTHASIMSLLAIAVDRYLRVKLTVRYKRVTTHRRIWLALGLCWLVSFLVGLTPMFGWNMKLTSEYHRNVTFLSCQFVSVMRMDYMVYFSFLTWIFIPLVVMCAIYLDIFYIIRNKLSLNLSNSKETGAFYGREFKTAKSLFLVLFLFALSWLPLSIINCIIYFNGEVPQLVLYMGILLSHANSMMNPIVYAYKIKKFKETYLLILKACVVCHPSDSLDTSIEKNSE
# Experimental: as §1, §2, §3
# adenosine A2A receptor = adenosine A2A receptor (Rattus norvegicus, UniProt P30543); assay: biochemical; conditions: for A3/A2A: ratio of Ki A3 (human) to Ki A2A (rat); for % displacement at 10^-5 M, A2A: [3H]ZM241385, rat striatal membranes, 10 μM, n=2, mean value
# Experimental: as §1, §2, §3
# [2] = [125I]AB-MECA, human A3 receptor in HEK 293 cells
Compound,inhibition at 10 µM (adenosine A1 receptor) [%],% cAMP production hA2A [1],agonist behaviour (intrinsic activity) at the adenosine A2A receptor [1],"Ki (human A3 receptor; [125I]AB-MECA, human A3 receptor in HEK 293 cells, ±SEM, n=3, read-out: Ki A3) [nM]",Ki (adenosine A2A receptor) [nM],A3/A2A (adenosine A2A receptor),Ki (human A3 receptor) [nM],"% displacement at 10^-5 M, A2A (adenosine A2A receptor) [%]","% displacement at 10^-5 M, A3 (human A3 receptor; [2]) [%]",melting point [°C],selectivity for the adenosine A2A receptor compared to A3 (adenosine A2A receptor; from Ki values) [fold],Ki (adenosine A1 receptor) [nM]
"Nc1nc(I)nc2c1ncn2[C@@H]1O[C@H](CO)[C@@H](O)[C@H]1O [Compound 1, 2-Iodoadenosine]",36.1,126% (118–134),full agonist,–,–,–,–,–,–,–,–,–
"CCCCC#Cc1nc(N)c2ncn([C@@H]3O[C@H](CO)[C@@H](O)[C@H]3O)c2n1 [Compound 3, 2-(1-hexynyl)adenosine]",–,61% (58–64),partial agonism,16.9 ± 4.1,–,–,–,–,–,–,–,–
"CCCC/C=C/c1nc(N)c2ncn([C@@H]3O[C@H](CO)[C@@H](O)[C@H]3O)c2n1 [Compound 4, 2-((E)-1-hexenyl)adenosine]",53.1,82% (78–86),partial agonism,–,26.2 ± 1.8,2.78,73.5 ± 7.7,–,–,–,–,–
"Nc1nc(I)nc2c1nc(Br)n2[C@@H]1O[C@H](CO)[C@@H](O)[C@H]1O [Compound 5, 2-iodo-8-bromoadenosine]",21.6,–,–,–,–,–,–,43.1,6.2,–,–,–
"CNc1nc2c(N)nc(I)nc2n1[C@@H]1O[C@H](CO)[C@@H](O)[C@H]1O [Compound 7, 2-Iodo-8-methylaminoadenosine]",35.2,23% (20–25),–,–,–,–,7310 ± 440,43.3,–,162 to 164,–,–
"CCNc1nc2c(N)nc(I)nc2n1[C@@H]1O[C@H](CO)[C@@H](O)[C@H]1O [Compound 8, 2-iodo-8-ethylaminoadenosine]",35.2,77% (76–78),–,–,–,–,5110 ± 890,40.6,–,205 to 207,–,–
"CCCNc1nc2c(N)nc(I)nc2n1[C@@H]1O[C@H](CO)[C@@H](O)[C@H]1O [Compound 9, 2-Iodo-8-propylaminoadenosine]",40.2,–,–,–,–,–,8670 ± 2000,50.7,–,160 to 162,–,–
"CCCCNc1nc2c(N)nc(I)nc2n1[C@@H]1O[C@H](CO)[C@@H](O)[C@H]1O [Compound 10, 2-Iodo-8-butylaminoadenosine]",28.2,28% (27–30),–,–,3110 ± 1650,–,–,–,43.1,–,–,–
"Nc1nc(I)nc2c1nc(NCc1ccccc1)n2[C@@H]1O[C@H](CO)[C@@H](O)[C@H]1O [Compound 11, 2-iodo-8-benzylaminoadenosine]",35.5,125% (92–157),full agonists,–,–,–,–,44.7,39.5,–,–,–
"CCCCC#Cc1nc(N)c2nc(NC)n([C@@H]3O[C@H](CO)[C@@H](O)[C@H]3O)c2n1 [Compound 12, 2-(1-Hexynyl)-8-methylaminoadenosine]",31.6,85% (85–86),–,–,115,49.0,5640 ± 780,–,–,–,–,–
"CCCCC#Cc1nc(N)c2nc(NCC)n([C@@H]3O[C@H](CO)[C@@H](O)[C@H]3O)c2n1 [Compound 13, 2-(1-hexynyl)-8-ethylaminoadenosine]",30.9,134% (124–143),full agonist,–,253 ± 29,34.9,8830 ± 1230,–,–,–,–,–
"CCCCC#Cc1nc(N)c2nc(NCCC)n([C@@H]3O[C@H](CO)[C@@H](O)[C@H]3O)c2n1 [Compound 14, 2-(1-Hexynyl)-8-propylaminoadenosine]",47.6,58% (50–66),–,–,82,26.3,2160 ± 120,–,–,184 to 186,~26,–
"CCCCC#Cc1nc(N)c2nc(NCCCC)n([C@@H]3O[C@H](CO)[C@@H](O)[C@H]3O)c2n1 [Compound 15, 2-(1-hexynyl)-8-butylaminoadenosine]",–,72% (63–82),–,–,149 ± 29,–,–,–,64.3,182 to 184,–,539 ± 380
"CCCCC#Cc1nc(N)c2nc(NCc3ccccc3)n([C@@H]3O[C@H](CO)[C@@H](O)[C@H]3O)c2n1 [Compound 16, 2-(1-hexynyl)-8-Benzylaminoadenosine]",–,83% (61–106),full agonists,–,–,–,7970 ± 610,35.4,–,141 to 143,–,756 ± 483
"CCCC/C=C/c1nc(N)c2nc(NC)n([C@@H]3O[C@H](CO)[C@@H](O)[C@H]3O)c2n1 [Compound 17, 2-((E)-1-Hexenyl)-8-methylaminoadenosine]",17.9,54% (49–59),–,–,663 ± 106,20.3,13400 ± 2130,–,–,161 to 166,–,–
"CCCC/C=C/c1nc(N)c2nc(NCC)n([C@@H]3O[C@H](CO)[C@@H](O)[C@H]3O)c2n1 [Compound 18, 2-((E)-1-hexenyl)-8-ethylaminoadenosine]",30,65% (63–66),–,–,1840 ± 300,9.53,17500 ± 2100,–,–,128 to 130,–,–
"CCCC/C=C/c1nc(N)c2nc(NCCC)n([C@@H]3O[C@H](CO)[C@@H](O)[C@H]3O)c2n1 [Compound 19, 2-((E)-1-hexenyl)-8-propylaminoadenosine]",49.5,73% (70–76),–,–,678 ± 25,21.1,14300 ± 2160,–,–,170 to 172,–,–
"CCCC/C=C/c1nc(N)c2nc(NCCCC)n([C@@H]3O[C@H](CO)[C@@H](O)[C@H]3O)c2n1 [Compound 20, 2-((E)-1-hexenyl)-8-butylaminoadenosine]",–,36% (33–40),–,–,580 ± 250,–,–,–,47.4,–,–,906 ± 264
"CCCCC#Cc1nc(N)c2nc(C#CCCCC)n([C@@H]3O[C@H](CO)[C@@H](O)[C@H]3O)c2n1 [Compound 22, 2,8-di-(1-hexynyl)adenosine]",50.3,99% (98–99),full agonists,–,–,–,254 ± 34,28.7,–,–,–,–
"Nc1nc(NCc2ccccc2)nc2c1nc(NCc1ccccc1)n2[C@@H]1O[C@H](CO)[C@@H](O)[C@H]1O [Compound 23, 2,8-di-benzylaminoadenosine]",50.2,95% (90–100),full agonists,–,–,–,–,11.6,54.1,–,–,–
